Measurements published in ChEMBL document CHEMBL1697821, “Development of a phospholipidosis database and predictive quantitative structure-activity relationship (QSAR) models” (Toxicol Mech Methods, 2008).

System: Phospholipidosis
Assay: Literature-mined public compounds from Kruhlak et al phospholipidosis modelling dataset

Row | Structure (SMILES) | Phospholipidosis
1 | CC(=O)OCC(=O)[C@@]1(OC(=O)C(C)C)[C@@H](C)C[C@H]2[C@@H]3CCC4=CC(=O)C=C[C@]4(C)[C@@]3(F)[C@@H](O)C[C@@]21C [BETAMETHASONE ACIBUTATE] | Negative: based on the absence of positive reported data from WMDD
2 | OCCOCCN1CCN(C(c2ccccc2)c2ccc(Cl)cc2)CC1 (stereo not given) [HYDROXYZINE] | Positive: strong inducer confirmed by electron microscopy
3 | CN(C)CCCN1c2ccccc2Sc2ccccc21 [PROMAZINE] | Positive: weak inducer based on presence of foamy macrophages and cytoplasmic vacuolations
4 | N#Cc1ccc(NC(=O)N=C(N)N)cc1Cl [CLOGUANAMIL] | Positive: weak inducer based on presence of foamy macrophages and cytoplasmic vacuolations
5 | CCCC(CCC)C(=O)O[C@H]1C[C@H]2CC[C@@H](C1)[N+]2(C)C.[Br-] [ANISOTROPINE METHYLBROMIDE] | Negative: based on the absence of positive reported data from WMDD
6 | CN[C@@H]1[C@H](O)[C@H](NC)[C@H]2O[C@@]3(O)C(=O)C[C@@H](C)O[C@H]3O[C@@H]2[C@H]1O [SPECTINOMYCIN] | Positive: weak inducer based on presence of foamy macrophages and cytoplasmic vacuolations
7 | CN(C)CCCN(C)[C@H]1CC[C@H]2[C@@H]3CC=C4C[C@@H](O)CC[C@]4(C)[C@H]3CC[C@]12C [AZACOSTEROL] | Positive: strong inducer confirmed by electron microscopy
8 | CC(=O)OC[C@H]1O[C@@H](n2ncc(=O)[nH]c2=O)[C@H](OC(C)=O)[C@@H]1OC(C)=O [AZARIBINE] | Negative: based on the absence of positive reported data from WMDD
9 | CC[C@H]1CN2CCc3cc(OC)c(OC)cc3[C@@H]2C[C@@H]1C[C@H]1NCCc2cc(OC)c(OC)cc21 [EMETINE] | Positive: weak inducer based on presence of foamy macrophages and cytoplasmic vacuolations
10 | CCOC(=O)NC(C)(C)Cc1ccc(Cl)cc1 [CLOFOREX] | Negative: confirmed by electron microscopy
11 | Cc1cc(NS(=O)(=O)c2ccc(N)cc2)no1 [SULFAMETHOXAZOLE] | Negative: confirmed by electron microscopy
12 | CC(=O)OCC1=C(C(=O)O)N2C(=O)[C@@H](NC(=O)[C@H](N)c3ccccc3)[C@H]2SC1 [CEPHALOGLYCIN] | Negative: based on the absence of positive reported data from WMDD
13 | CC(=O)Oc1cc(C(C)C)c(OCCN(C)C)cc1C [MOXISYLYTE] | Negative: based on the absence of positive reported data from WMDD
14 | CC1(C)C(=O)NC(=O)N1CC(N)COc1ccc(-c2ccc(OC(F)(F)F)cc2)cc1 (stereo not given) | Positive: weak inducer based on presence of foamy macrophages and cytoplasmic vacuolations
15 | CCNC(C)Cc1cccc(C(F)(F)F)c1 (stereo not given) [FENFLURAMINE] | Positive: strong inducer confirmed by electron microscopy
16 | CCC(=O)c1ccc(O)cc1 [PAROXYPROPIONE] | Negative: based on the absence of positive reported data from WMDD
17 | OCC(O)CO [GLYCERIN] | Negative: based on the absence of positive reported data from WMDD
18 | Cc1oncc1C(=O)Nc1ccc(C(F)(F)F)cc1 [LEFLUNOMIDE] | Negative: based on the absence of positive reported data from WMDD
19 | CCN[C@@H]1C[C@H](N)[C@@H](O[C@H]2OC(CN)=CC[C@H]2N)[C@H](O)[C@H]1O[C@H]1OC[C@](C)(O)[C@H](NC)[C@H]1O [NETILMICIN] | Positive: strong inducer confirmed by electron microscopy
20 | O=C1CN2CCOC2(c2ccccc2F)c2cc(Cl)ccc2N1CCO (stereo not given) [FLUTAZOLAM] | Negative: based on the absence of positive reported data from WMDD

Row | Structure (SMILES) | Phospholipidosis
21 | C[N+]1(C)CCCC(OC(=O)C(O)(c2ccccc2)c2ccccc2)C1.[Br-] (stereo not given) [MEPENZOLATE BROMIDE] | Negative: based on the absence of positive reported data from WMDD
22 | CCOC(=O)N1CCC(=C2c3ccc(Cl)cc3CCc3cccnc32)CC1 [LORATADINE] | Positive: weak inducer based on presence of foamy macrophages and cytoplasmic vacuolations
23 | NC(=O)NC(=O)Cc1ccccc1 [PHENACEMIDE] | Negative: based on the absence of positive reported data from WMDD
24 | O=c1[nH]cc(F)c(=O)[nH]1 [FLUOROURACIL] | Negative: based on the absence of positive reported data from WMDD
25 | NC[C@H]1Cc2ccc(F)cc2[C@@H](c2ccccc2)O1 | Positive: strong inducer confirmed by electron microscopy
26 | C[C@](N)(Cc1ccc(O)c(O)c1)C(=O)O [METHYLDOPA] | Negative: confirmed by electron microscopy
27 | CC(C)(N)Cc1ccccc1 [PHENTERMINE] | Positive: weak inducer based on presence of foamy macrophages and cytoplasmic vacuolations
28 | CN(C)CCON=C1c2ccccc2CCc2ccccc21 [NOXIPTILINE] | Positive: weak inducer based on presence of foamy macrophages and cytoplasmic vacuolations
29 | CC(C)(C)NCC(O)COc1ccccc1C#N (stereo not given) [BUNITROLOL] | Negative: based on the absence of positive reported data from WMDD
30 | CN(C)C(=O)CCCOC(=O)C(C)(C)Oc1ccc(Cl)cc1 [CLOFIBRIDE] | Negative: based on the absence of positive reported data from WMDD
31 | CN(C)/C=N/c1c(I)cc(I)c(CCC(=O)O)c1I [IPODATE] | Negative: based on the absence of positive reported data from WMDD
32 | CC1COc2c(N3CCN(C)CC3)c(F)cc3c(=O)c(C(=O)O)cn1c23 (stereo not given) [OFLOXACIN] | Negative: confirmed by electron microscopy
33 | CC(S)C(=O)NCC(=O)O (stereo not given) [TIOPRONIN] | Negative: based on the absence of positive reported data from WMDD
34 | O=C(NCC1CCCCN1)c1cc(OCC(F)(F)F)ccc1OCC(F)(F)F (stereo not given) [FLECAINIDE] | Negative: confirmed by electron microscopy
35 | CC(=O)OCCN1CCN(CCCN2c3ccccc3Sc3ccc(Cl)cc32)CC1 [THIOPROPAZATE] | Negative: based on the absence of positive reported data from WMDD
36 | OCCN1CCN(CCCN2c3ccccc3Sc3ccc(Cl)cc32)CC1 [PERPHENAZINE] | Negative: based on the absence of positive reported data from WMDD
37 | C[C@H]1C[C@H]2[C@@H]3CCC4=CC(=O)C=C[C@]4(C)[C@H]3C(=O)C[C@]2(C)[C@@]1(O)C(=O)CO [MEPREDNISONE] | Negative: based on the absence of positive reported data from WMDD
38 | CCOC(=O)/C=C(C)/C=C/C=C(C)/C=C/c1c(C)cc(OC)c(C)c1C [ETRETINATE] | Negative: based on the absence of positive reported data from WMDD
39 | CCC(c1ccc(OCCN(CC)CC)cc1)C(CC)c1ccc(OCCN(CC)CC)cc1 (stereo not given) [CORALGIL] | Positive: strong inducer confirmed by electron microscopy
40 | CC1(C)S[C@@H]2[C@H](NC(=O)COc3ccccc3)C(=O)N2[C@H]1C(=O)O [PENICILLIN V] | Negative: based on the absence of positive reported data from WMDD

Row | Structure (SMILES) | Phospholipidosis
41 | O=C1C[C@@H]2OCC=C3CN4CC[C@]56c7ccccc7N1[C@H]5[C@H]2[C@H]3C[C@H]46 [STRYCHNINE] | Negative: based on the absence of positive reported data from WMDD
42 | OC[C@@H](O)[C@@H](O)[C@H](O)[C@@H](O)CO [SORBITOL] | Negative: based on the absence of positive reported data from WMDD
43 | O=C(O)c1ccccc1Nc1cccc(C(F)(F)F)c1 [FLUFENAMIC ACID] | Negative: based on the absence of positive reported data from WMDD
44 | COc1ccc(C(CN(C)C)C2(O)CCCCC2)cc1 (stereo not given) [VENLAFAXINE] | Negative: based on the absence of positive reported data from WMDD
45 | O=C(Cn1c(=O)sc2ccc(Cl)cc21)N1CCN(CCO)CC1 [TIARAMIDE] | Negative: based on the absence of positive reported data from WMDD
46 | Clc1ccc(C/C(=C\CN2CCCC2)c2ccccc2)cc1 [PYRROBUTAMINE] | Negative: based on the absence of positive reported data from WMDD
47 | CCc1nn(CCCN2CCN(c3cccc(Cl)c3)CC2)c(=O)n1CCOc1ccccc1 [NEFAZODONE] | Negative: based on the absence of positive reported data from WMDD
48 | CC1(C)C(=O)NC(=O)N1CC(COc1ccc(-c2ccc(OC(F)(F)F)cc2)cc1)NC=O (stereo not given) | Negative: confirmed by electron microscopy
49 | O=[N+]([O-])O[C@@H]1CO[C@H]2[C@@H]1OC[C@@H]2O [ISOSORBIDE MONONITRATE] | Negative: based on the absence of positive reported data from WMDD
50 | COc1ccc2[nH]c([S+]([O-])Cc3ncc(C)c(OC)c3C)nc2c1 (stereo not given) [OMEPRAZOLE] | Negative: based on the absence of positive reported data from WMDD
51 | O=C1CN=C(c2ccccc2)c2cc(Cl)ccc2N1CC(F)(F)F [HALAZEPAM] | Negative: based on the absence of positive reported data from WMDD
52 | Oc1c(I)cc(Cl)c2cccnc12 [CLIOQUINOL] | Negative: based on the absence of positive reported data from WMDD
53 | CNCCC=C1c2ccccc2CCc2ccccc21 [NORTRIPTYLINE] | Positive: strong inducer confirmed by electron microscopy
54 | C[N+](C)(C)CC(=O)O [BETAINE] | Negative: based on the absence of positive reported data from WMDD
55 | O=C1CCC(N2C(=O)c3ccccc3C2=O)C(=O)N1 (stereo not given) [THALIDOMIDE] | Negative: based on the absence of positive reported data from WMDD
56 | Cn1c(=O)c2c(ncn2CC(O)CO)n(C)c1=O (stereo not given) [DYPHYLLINE] | Negative: based on the absence of positive reported data from WMDD
57 | CC(=O)CCCCn1c(=O)c2c(ncn2C)n(C)c1=O [PENTOXIFYLLINE] | Negative: based on the absence of positive reported data from WMDD
58 | CC1(C)C(/C=C/C=C/C=C/C=C2/N(CCCCS(=O)(=O)[O-])c3ccc4ccccc4c3C2(C)C)=[N+](CCCCS(=O)(=O)[O-])c2ccc3ccccc3c21.[Na+] [INDOCYANINE GREEN] | Negative: based on the absence of positive reported data from WMDD
59 | NCCCC[C@H](N)C(=O)O [LYSINE] | Negative: based on the absence of positive reported data from WMDD
60 | CN(C)CCCC1(c2ccc(F)cc2)OCc2cc(C#N)ccc21 (stereo not given) [CITALOPRAM] | Positive: strong inducer confirmed by electron microscopy
